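Compound exposure: 48 hours, 5 concentrations, 96-well plates. GI50 marks 50% less growth.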 Activity calls are given as the source filed them. Rule as the data show it: active = GI50 up to about 1.1 µM and inactive = higher.
Legend:
Assay in all cases: NCI-60 cell line screen, 48 h
[1] = test system: MDA-MB-435
[2] = test system: Malme-3M
[3] = test system: ACHN
[4] = test system: UACC-257
[5] = test system: HOP-62
[6] = test system: U-251
[7] = test system: OVCAR-5
[8] = test system: M14
[9] = test system: HL-60
[10] = test system: 786-0
[11] = test system: HCT-116
[12] = test system: COLO 205
[13] = test system: LOX IMVI
[14] = test system: OVCAR-3
[15] = test system: CAKI-1
[16] = test system: UACC-62
[17] = test system: NCI-H460
[18] = test system: SK-MEL-2
[19] = test system: NCI-H23
[20] = test system: SNB-75

Measured: GI50

O=C(CCN1CCOCC1)Nc1ccc(F)cc1F
inactive: [1] > 100 µM | [2] > 100 µM | [3] > 100 µM | [4] > 100 µM | [5] > 100 µM | [6] > 100 µM | [7] > 100 µM | [8] > 100 µM | [9] > 100 µM | [10] > 100 µM | [11] > 100 µM | [12] > 100 µM | [13] > 100 µM | [14] > 100 µM | [15] > 100 µM | [16] > 100 µM | [17] > 100 µM | [18] > 100 µM | [19] > 100 µM

CCCCC/N=C/c1c(O)c(O)c(C(C)C)c2cc(C)c(-c3c(C)cc4c(C(C)C)c(O)c(O)c(/C=N/CCCCC)c4c3O)c(O)c12
inactive: [1] 6.3 µM | [2] 12.7 µM | [3] 3.59 µM | [4] 15.6 µM | [5] 15.3 µM | [6] 3.06 µM | [7] 19 µM | [8] 38.1 µM | [9] 3.94 µM | [10] 11.8 µM | [11] 11 µM | [12] 2.75 µM | [13] 3.52 µM | [14] 5.28 µM | [15] 18 µM | [16] 7.03 µM | [17] 5.65 µM | [18] 14 µM | [19] 12 µM

CC(=O)Nc1ccc(N2C(=O)/C(=C\c3cccc(Oc4ccccc4)c3)SC2c2ccccc2)cc1 (configuration not stated)
inactive: [1] 32.5 µM | [2] 28 µM | [3] 71 µM | [4] 35 µM | [5] 22.6 µM | [6] 14.7 µM | [7] > 100 µM | [8] 32.3 µM | [9] 25.4 µM | [10] 37.8 µM | [11] 18.1 µM | [12] 70.3 µM | [13] 17.2 µM | [14] 25.5 µM | [15] 66.4 µM | [16] 22.4 µM | [17] 50.7 µM | [18] 30.4 µM | [19] 26.1 µM

Oc1ccc2c3c1OC1c4[nH]c5c(c4CC4(O)C(C2)N(CC2CC2)CC[C@]314)CC1(O)C2Cc3ccc(O)c4c3[C@@]1(CCN2CC1CC1)C5O4 (some centres not stated)
inactive: [1] 19.9 µM | [2] 17 µM | [3] > 100 µM | [4] 20.3 µM | [5] 77.3 µM | [6] 19.9 µM | [7] 28 µM | [8] 17.5 µM | [9] 21.9 µM | [10] 21.3 µM | [11] 17.5 µM | [12] 18.1 µM | [13] 27 µM | [14] 17.6 µM | [15] > 100 µM | [16] 20.4 µM | [18] 24.2 µM | [19] > 100 µM

CO/C(=N\N=C\c1ccccc1F)c1ccncc1
inactive: [1] > 10 µM | [2] > 10 µM | [3] > 10 µM | [4] > 10 µM | [5] > 10 µM | [6] > 10 µM | [7] > 10 µM | [8] > 10 µM | [9] > 10 µM | [10] > 10 µM | [11] > 10 µM | [12] > 10 µM | [13] > 10 µM | [14] > 10 µM | [15] > 10 µM | [17] > 10 µM | [18] > 10 µM | [19] > 10 µM

COC1CC(OC(=O)c2ccccc2)C(OC(=O)c2ccccc2)C(C)O1 (configuration not stated)
inactive: [1] > 100 µM | [2] > 100 µM | [3] > 100 µM | [4] > 100 µM | [5] > 100 µM | [6] > 100 µM | [7] > 100 µM | [8] > 100 µM | [9] > 100 µM | [10] > 100 µM | [11] > 100 µM | [12] > 100 µM | [13] > 100 µM | [14] > 100 µM | [15] > 100 µM | [16] > 100 µM | [17] > 100 µM | [18] > 100 µM | [19] > 100 µM

O=c1oc2ccccc2cc1/C=N/N1C(=S)N(c2ccccc2)C(=N\c2ccccc2)/C1=N/c1ccccc1
inactive: [1] > 100 µM | [2] > 100 µM | [3] 39.6 µM | [4] 96.8 µM | [5] 52.2 µM | [6] > 100 µM | [7] > 100 µM | [8] > 100 µM | [10] > 100 µM | [11] 41.4 µM | [12] > 100 µM | [14] > 100 µM | [15] > 100 µM | [16] 98.2 µM | [17] 47.6 µM | [18] > 100 µM | [19] > 100 µM | [20] 1.65 µM

C=C(Cl)C(Br)(CBr)CCC(Br)C(C)(C)Br (configuration not stated)
inactive: [1] > 10 µM | [3] 9.16 µM | [5] 6.67 µM | [6] 5.11 µM | [7] > 10 µM | [8] > 10 µM | [10] 1.57 µM | [11] 2.01 µM | [12] 7.33 µM | [14] > 10 µM | [15] > 10 µM | [16] 4.11 µM | [19] > 10 µM | [20] 4.7 µM

C[n+]1c(-c2ccc(/C=N/NC(=N)N/N=C/c3ccc(-c4cn5cc(Cl)ccc5[n+]4C)cc3)cc2)cn2cc(Cl)ccc21
inactive: [1] > 100 µM | [3] > 100 µM | [4] > 100 µM | [5] > 100 µM | [6] > 100 µM | [7] > 100 µM | [8] > 100 µM | [9] > 100 µM | [10] 73.3 µM | [11] > 100 µM | [12] > 100 µM | [17] > 100 µM | [20] > 100 µM

C=CCN1C[C@@H](C)N([C@@H](c2ccc(C(=O)N(CC)CC)cc2)c2cccc(OC)c2)C[C@@H]1C
inactive: [1] > 100 µM | [2] > 100 µM | [3] > 100 µM | [5] > 100 µM | [6] > 100 µM | [7] > 100 µM | [8] > 100 µM | [10] > 100 µM | [11] > 100 µM | [12] > 100 µM | [13] > 100 µM | [14] > 100 µM | [15] > 100 µM | [16] > 100 µM | [18] > 100 µM | [19] > 100 µM

CC(C)=CCC/C(C)=C/CO [GERANIOL]
inactive: [1] > 100 µM | [2] > 100 µM | [3] > 100 µM | [4] > 100 µM | [5] > 100 µM | [6] > 100 µM | [7] > 100 µM | [8] > 100 µM | [9] > 100 µM | [10] > 100 µM | [11] > 100 µM | [12] > 100 µM | [13] > 100 µM | [14] > 100 µM | [15] > 100 µM | [16] > 100 µM | [17] > 100 µM | [18] > 100 µM | [19] > 100 µM

From ChEMBL document CHEMBL1201862, “PubChem BioAssay data set” (2004)
